Test results reported in patent publication US20230227427A1, “IL-17A MODULATORS” (SANOFI, priority 2010, published 2023).

Molecular target: T1, human recombinant IL-17A (Homo sapiens, UniProt Q16552)
T1 construct: purchased R&D Systems 7955-IL/CF
T1 sequence (Q16552 24-155): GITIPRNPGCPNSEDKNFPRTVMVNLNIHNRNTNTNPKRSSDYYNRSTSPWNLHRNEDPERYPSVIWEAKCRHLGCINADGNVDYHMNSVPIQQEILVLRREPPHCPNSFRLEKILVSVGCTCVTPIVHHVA
Assay: IL-17A AlphaLISA assay (block binding of IL-17A to its receptor IL-17RA)
Settings: compounds pre-incubated with the IL-17A for 30 min (indicated by * in Table A); read-out: AlphaLISA pIC50 (converted)
In short: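 PBS with 0.05% Tween-20 and 0.1% BSA. IL-17A stock 7.5 nM, IL-17RA/Fc stock 5 nM; compound–cytokine pre-incubation 24 h at RT, or 30 min where marked, then 90 min with receptor. pIC50 from 4-parameter logistic AlphaLISA signal, normalised to DMSO and 6 μM reference inhibitor.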

| Compound | IC50 [nM] |
| --- | --- |
| Cc1cnn(C)c1-c1ccc(NC(=O)[C@@H](NC(=O)c2ccnn2C(C)C)[C@H]2CC[C@H](C)CC2)cn1 [Example 204, N—((S)-2-((6-(1,4-dimethyl-1H-pyrazol-5-yl)pyridin-3-yl)amino)-1-((1r,4S)-4-methylcyclohexyl)-2-oxoethyl)-1-isopropyl-1H-pyrazole-5-carboxamide] | 200 |
| CCn1nccc1C(=O)N[C@H](C(=O)Nc1ccc(-c2c(CO)cnn2C)cn1)[C@H]1CC[C@H](C)CC1 [Example 205, 1-ethyl-N—((S)-2-((5-(4-(hydroxymethyl)-1-methyl-1H-pyrazol-5-yl)pyridin-2-yl)amino)-1-((1r,4S)-4-methylcyclohexyl)-2-oxoethyl)-1H-pyrazole-5-carboxamide] | 251 |
| Cc1noc(C)c1-c1ccc(NC(=O)[C@@H](NC(=O)c2ccnn2C(C)C)[C@H]2CC[C@H](C)CC2)cn1 [Example 206, N—((S)-2-((6-(3,5-dimethylisoxazol-4-yl)pyridin-3-yl)amino)-1-((1r,4S)-4-methylcyclohexyl)-2-oxoethyl)-1-isopropyl-1H-pyrazole-5-carboxamide] | 126 |
| Cc1n[nH]c(C)c1-c1ccc(NC(=O)[C@@H](NC(=O)c2cnnn2C)C2CCCCCC2)cn1 [Example 209, (S)—N-(1-cycloheptyl-2-((6-(3,5-dimethyl-1H-pyrazol-4-yl)pyridin-3-yl)amino)-2-oxoethyl)-1-methyl-1H-1,2,3-triazole-5-carboxamide] | 794 |
| CCc1nocc1C(=O)N[C@H](C(=O)Nc1ccc(-c2c(C)n[nH]c2C)nc1)C1CCCCCC1 [Example 210, (S)—N-(1-cycloheptyl-2-((6-(3,5-dimethyl-1H-pyrazol-4-yl)pyridin-3-yl)amino)-2-oxoethyl)-3-ethylisoxazole-4-carboxamide] | 63.1 |
| Cc1n[nH]c(C)c1-c1ccc(NC(=O)[C@@H](NC(=O)c2ccnn2C)[C@H]2CC[C@H](C)CC2)cn1 [Example 211, N—((S)-2-((6-(3,5-dimethyl-1H-pyrazol-4-yl)pyridin-3-yl)amino)-1-((1r,4S)-4-methylcyclohexyl)-2-oxoethyl)-1-methyl-1H-pyrazole-5-carboxamide] | 158 |
| CCn1nccc1C(=O)N[C@H](C(=O)Nc1ccc(-c2c(C)n[nH]c2C)nc1)[C@H]1CC[C@H](C)CC1 [Example 212, N—((S)-2-((6-(3,5-dimethyl-1H-pyrazol-4-yl)pyridin-3-yl)amino)-1-((1r,4S)-4-methylcyclohexyl)-2-oxoethyl)-1-ethyl-1H-pyrazole-5-carboxamide] | 100 |
| CCc1nocc1C(=O)N[C@H](C(=O)Nc1ccc(-c2c(C)n[nH]c2C)nc1)[C@H]1CC[C@H](C)CC1 [Example 213, N—((S)-2-((6-(3,5-dimethyl-1H-pyrazol-4-yl)pyridin-3-yl)amino)-1-((1r,4S)-4-methylcyclohexyl)-2-oxoethyl)-3-ethylisoxazole-4-carboxamide] | 100 |
| Cc1cnn(C)c1-c1ccc(NC(=O)C(NC(=O)c2ccnn2C)C2C3(CC3)CCC23CC3)nc1 (centres unmarked) [Example 220, N-(2-((5-(1,4-dimethyl-1H-pyrazol-5-yl)pyridin-2-yl)amino)-1-(dispiro[2.1.2^5.2^3]nonan-4-yl)-2-oxoethyl)-1-methyl-1H-pyrazole-5-carboxamide] | 31.6 |

Further lines, results first:

| IC50 [nM] | Compound |
| --- | --- |
| 501 | Cc1n[nH]c(C)c1-c1ccc(NC(=O)[C@@H](NC(=O)c2ccnn2C)C2CCCCC2)cn1 [Example 207, (S)—N-(1-cyclohexyl-2-((6-(3,5-dimethyl-1H-pyrazol-4-yl)pyridin-3-yl)amino)-2-oxoethyl)-1-methyl-1H-pyrazole-5-carboxamide] |
| 63.1 | CCn1nccc1C(=O)N[C@H](C(=O)Nc1ccc(-c2c(C)n[nH]c2C)nc1)C1CCCCCC1 [Example 208, (S)—N-(1-cycloheptyl-2-((6-(3,5-dimethyl-1H-pyrazol-4-yl)pyridin-3-yl)amino)-2-oxoethyl)-1-ethyl-1H-pyrazole-5-carboxamide] |
| 158 | Cc1cc(=O)n(C)c(C)c1-c1ccc(NC(=O)[C@@H](NC(=O)c2ccnn2C)C2CCCCCC2)nc1 [Example 214, (S)—N-(1-cycloheptyl-2-oxo-2-((1′,2′,4′-trimethyl-6′-oxo-1′,6′-dihydro-[3,3′-bipyridin]-6-yl)amino)ethyl)-1-methyl-1H-pyrazole-5-carboxamide] |
| 126 | Cc1cc(=O)n(C)c(C)c1-c1ccc(NC(=O)[C@@H](NC(=O)c2ccnn2C)[C@H]2CC[C@H](C)CC2)nc1 [Example 215, 1-methyl-N—((S)-1-((1r,4S)-4-methylcyclohexyl)-2-oxo-2-((1′,2′,4′-trimethyl-6′-oxo-1′,6′-dihydro-[3,3′-bipyridin]-6-yl)amino)ethyl)-1H-pyrazole-5-carboxamide] |
| 501 | Cc1nn(C)c(C)c1-c1ccc(NC(=O)[C@@H](NC(=O)c2ccnn2C)C2CCCCCC2)nc1 [Example 216, (S)—N-(1-cycloheptyl-2-oxo-2-((5-(1,3,5-trimethyl-1H-pyrazol-4-yl)pyridin-2-yl)amino)ethyl)-1-methyl-1H-pyrazole-5-carboxamide] |
| 501 | Cc1nn(C)c(C)c1-c1ccc(NC(=O)[C@@H](NC(=O)c2ccnn2C)[C@H]2CC[C@H](C)CC2)nc1 [Example 217, 1-methyl-N—((S)-1-((1r,4S)-4-methylcyclohexyl)-2-oxo-2-((5-(1,3,5-trimethyl-1H-pyrazol-4-yl)pyridin-2-yl)amino)ethyl)-1H-pyrazole-5-carboxamide] |
| 158 | Cc1n[nH]c(C)c1-c1ccc(NC(=O)[C@@H](NC(=O)c2ccnn2C)C2CCCCCC2)cn1 [Example 218, (S)—N-(1-cycloheptyl-2-((6-(3,5-dimethyl-1H-pyrazol-4-yl)pyridin-3-yl)amino)-2-oxoethyl)-1-methyl-1H-pyrazole-5-carboxamide] |
| 126 | Cn1nccc1C(=O)N[C@H](C(=O)Nc1ccc(-c2c(C(F)(F)F)cnn2C)cn1)[C@H]1CC[C@H](C)CC1 [Example 219, 1-methyl-N—((S)-2-((5-(1-methyl-4-(trifluoromethyl)-1H-pyrazol-5-yl)pyridin-2-yl)amino)-1-((1r,4S)-4-methylcyclohexyl)-2-oxoethyl)-1H-pyrazole-5-carboxamide] |
